Marks after values point to notes of the source that are not given here.
Assays:
CD8+ T cells = experiment: Viability and effects on CD8+ T cells after 72 hours of exposure; type: cell-based
Protocol: (§1) In vitro assays designed to assess the viability and effects of GZ17-6.02, GZ17-6.02.02, its metabolites as single agents, and the metabolites in combination effects of CD8+ T cells and CD56+ natural killer cells after 72 hours of exposure. Test agents used included 6.02 (77% Isovanillin+13% Harmine+10% Curcumin), 6.02.02 (77% Isovanillin+13% Harmine+8.5% Curcumin sulfate tetrabutylammonium salt+1.5% Curcumin β-D-glucuronide), Curcumin metabolites combination (85% Curcumin sulfate tetrabutylammonium salt+15% Curcumin β-D-glucuronide), Curcumin metabolites single agents (single agent Curcumin sulfate tetrabutylammonium salt, or single agent Curcumin 3-D-glucuronide).

[1] = tested on: CD56+ natural killer cells; experiment: Viability and effects on CD56+ natural killer cells after 72 hours of exposure; type: cell-based
Protocol: as §1

[2] = tested on: H1975 cells (wild type sensitive); experiment: In-cell immunostaining of protein expression and phosphorylation, H1975 wild type cells; type: cell-based, human; conditions: 1975 WT; 6 h; GZ17-6.02 2 mM final curcumin, osimertinib 100 nM; vehicle 100%
Protocol: (§2) […] Cells were fixed in place 6 hours after treatment and immunostaining of single cells performed to determine the levels of each protein/phosphor-protein (n=3+/−SD). * p<0.05 less than vehicle control; # p<0.05 greater than vehicle control.
(§3) Assessments of protein expression and protein phosphorylation. Multi-channel fluorescence HCS microscopes perform true in-cell western blotting. Three independent cultures derived from three thawed vials of cells of a tumor were sub-cultured into individual 96-well plates. Twenty-four hours after plating, the cells are transfected with a control plasmid or a control siRNA, or with an empty vector plasmid or with plasmids to express various proteins. After another 24 hours, the cells are ready for drug exposure(s). At various time-points after the initiation of drug exposure, cells are fixed in place using paraformaldehyde and using Triton X100 for permeabilization. Standard immunofluorescent blocking procedures are employed, followed by incubation of different wells with a variety of validated primary antibodies and subsequently validated fluorescent-tagged secondary antibodies are added to each well. The microscope determines the background fluorescence in the well and in parallel randomly determines the mean fluorescent intensity of 100 cells per well.

H1650 cells (wild type) = experiment: In-cell immunostaining of protein expression and phosphorylation, H1650 wild type cells; type: cell-based, human; conditions: 1650 WT; 6 h; GZ17-6.02 2 mM final curcumin, osimertinib 100 nM; vehicle 100%
Protocol: as §3

[3] = tested on: afatinib-resistant (AR) H1975 cells; experiment: In-cell immunostaining of protein expression and phosphorylation, afatinib-resistant H1975 cells; type: cell-based, human; conditions: 1975 AR; 6 h; GZ17-6.02 2 mM final curcumin, osimertinib 100 nM; vehicle 100%
Protocol: as §2
Generation of erlotinib, afatinib and osimertinib-resistant cells. Cells were incubated in vitro with increasing concentrations of vehicle control or erlotinib or osimertinib until after ˜6 weeks the HCC827 and H1975 and H1650 cells grew with similar kinetics to sensitive cells in either erlotinib ([…]) or osimertinib ([…]), respectively. Afatinib-resistant cells were created in vivo by repeated high dosing until tumors disappeared and then regrew, as previously described.
as §3

Curcumin sulfate tetrabutylammonium salt
104.14 % of control: CD56 + NK Cells % of control ([1]; 0.03 μM)
107.62 % of control: CD8 + T Cells % of control (CD8+ T cells; 0.03 μM)
103.40 % of control: CD56 + NK Cells % of control ([1]; 0.3 μM)
143.23 % of control: CD8 + T Cells % of control (CD8+ T cells; 30 μM)
110.77 % of control: CD56 + NK Cells % of control ([1]; 3 μM)
154.26 % of control: CD8 + T Cells % of control (CD8+ T cells; 3 μM)
107.76 % of control: CD56 + NK Cells % of control ([1]; 30 μM)
170.61 % of control: CD8 + T Cells % of control (CD8+ T cells; 0.3 μM)

C=CC(=O)Nc1cc(Nc2nccc(-c3cn(C)c4ccccc34)n2)c(OC)cc1N(C)CCN(C)C [OSI]
85* %: FLIP-s [2]
66* %: P-mTOR S2448 [3]
119# %: GRP78 [2]
105%: HDAC6 [2] | P-ULK1 S317 [2] | P-SRC Y527 (H1650 cells (wild type)) | ATG5 [3] | P-eIF2α S51 [3]
113# %: Beclin1 [2] | P-YAP S127 [2]
71* %: P-mTOR S2481 [3]
103%: HDAC7 [2] | Beclin1 (H1650 cells (wild type)) | MHCA (H1650 cells (wild type)) | PP1 (H1650 cells (wild type))
88%: P-STAT5 Y694 [2]
86* %: P-JAK2 (H1650 cells (wild type)) | P-AKT T308 [3]
126# %: P-ATG13 S318 [2]
63* %: P-ULK1 S757 [2]
65* %: P-ULK1 S757 [3]
95%: P-SRC Y416 [2] | P-STAT3 Y705 (H1650 cells (wild type)) | P-STAT5 Y694 [3]
112%: PP1 [3]
99%: ERBB1 [2] | ERBB4 [2] | ERK2 [2] | HDAC2 [2] | HDAC8 [2] | HDAC10 [2] | IDO1 [2] | P-c-KIT [2] | PD-L1 [2] | PUMA [2] | Total ERK2 [2] | YAP [2] | HDAC1 (H1650 cells (wild type)) | HDAC5 (H1650 cells (wild type)) | HDAC7 (H1650 cells (wild type)) | p70 S6K T389 (H1650 cells (wild type)) | P-ULK1 S317 [3] | p70 S6K T389 [3]
115# %: P-ATG13 S318 (H1650 cells (wild type))
103# %: GRP78 [3]
83* %: P-JAK2 [2] | P-MEK1/2 [2] | P-NFκB S536 (H1650 cells (wild type)) | P-SRC Y416 (H1650 cells (wild type))
92%: P-STAT3 Y705 [2] | P-c-MET [2] | p70 S6K T389 [2] | P-c-KIT (H1650 cells (wild type)) | P-STAT3 Y705 [3]
61* %: P-B1 (H1650 cells (wild type))
100%: ERBB2 [2] | HDAC5 [2] | NOXA [2] | ODC [2] | P-ATM S1980 [2] | P-B3 [2] | P-NFκB S536 [2] | PDGFRβ [2] | TAZ [2] | CD95 (H1650 cells (wild type)) | ERBB3 (H1650 cells (wild type)) | ERBB4 (H1650 cells (wild type)) | ERK2 (H1650 cells (wild type)) | HDAC9 (H1650 cells (wild type)) | HDAC11 (H1650 cells (wild type)) | IDO1 (H1650 cells (wild type)) | PUMA (H1650 cells (wild type)) | Total ERK2 (H1650 cells (wild type)) | c-KIT (H1650 cells (wild type)) | ERBB1 [3] | NOXA [3] | P-B3 [3] | Total ERK2 [3]
98%: HDAC9 [2] | c-KIT [2] | β-catenin [2] | ERBB1 (H1650 cells (wild type)) | HDAC2 (H1650 cells (wild type)) | HDAC3 (H1650 cells (wild type)) | HDAC6 (H1650 cells (wild type)) | HDAC10 (H1650 cells (wild type)) | P-AMPKα T172 (H1650 cells (wild type)) | P-ATM S1980 (H1650 cells (wild type)) | P-STAT5 Y694 (H1650 cells (wild type)) | YAP (H1650 cells (wild type)) | c-MET (H1650 cells (wild type)) | ERBB4 [3] | PUMA [3]
82* %: P-ERK1/2 (H1650 cells (wild type)) | P-MEK1/2 [3]
81* %: P-AKT T308 [2] | P-ULK1 S757 (H1650 cells (wild type))
68* %: P-mTOR S2448 [2] | P-mTOR S2481 [2]
96%: HDAC3 [2] | HDAC11 [2] | MHCA [2] | P-B3 (H1650 cells (wild type)) | P-B4 (H1650 cells (wild type)) | P-mTOR S2448 (H1650 cells (wild type))
89%: P-JNK1/2 [2] | P-PDGFRβ [2]
76* %: P-B1 [3]
73* %: P-B1 [2]
111%: ATG5 [2] | P-β-catenin [2] | GRP78 (H1650 cells (wild type)) | P-PERK T980 [3]
107%: P-ULK1 S317 (H1650 cells (wild type))
114# %: P-TAZ S89 [2]
93%: HDAC4 [2] | P-PDGFRβ (H1650 cells (wild type))
70* %: P-ERK1/2 [2]
87* %: P-mTOR S2481 (H1650 cells (wild type))
102%: CD95 [2] | P-B4 [2] | P-SRC Y527 [2] | FLIP-s (H1650 cells (wild type)) | P-YAP S127 (H1650 cells (wild type)) | P-β-catenin (H1650 cells (wild type)) | CHOP [3] | ERBB2 [3] | P-AMPKα T172 [3]
114%: P-eIF2α S51 (H1650 cells (wild type))
101%: ERBB3 [2] | FAS-L [2] | JNK1/2 [2] | P-AMPKα T172 [2] | P-B2 [2] | c-MET [2] | HDAC4 (H1650 cells (wild type)) | HDAC8 (H1650 cells (wild type)) | NOXA (H1650 cells (wild type)) | P-TAZ S89 (H1650 cells (wild type)) | TAZ (H1650 cells (wild type)) | β-catenin (H1650 cells (wild type)) | ERBB3 [3] | P-ATM S1980 [3] | P-B2 [3]
97%: HDAC1 [2] | PD-L2 [2] | P-B2 (H1650 cells (wild type)) | P-MEK1/2 (H1650 cells (wild type)) | PD-L1 (H1650 cells (wild type)) | PD-L2 (H1650 cells (wild type)) | P-B4 [3]
94%: ERBB2 (H1650 cells (wild type)) | P-c-MET (H1650 cells (wild type))
90%: P-AKT T308 (H1650 cells (wild type))
91%: P-JNK1/2 (H1650 cells (wild type))
109%: CHOP [2] | P-PERK T980 [2] | P-eIF2α S51 [2] | Beclin1 [3]
79* %: FLIP-s [3]
104%: PP1 [2] | FAS-L (H1650 cells (wild type)) | JNK1/2 (H1650 cells (wild type)) | ODC (H1650 cells (wild type)) | P-PERK T980 (H1650 cells (wild type))
106%: ATG5 (H1650 cells (wild type)) | CHOP (H1650 cells (wild type)) | PDGFRβ (H1650 cells (wild type))
121# %: P-ATG13 S318 [3]
